Literature values as cited in US20020032245A1, “Resinate composition” (priority 2000, published 2002).

COc1ccc2c(c1)c(CC(=O)O)c(C)n2C(=O)c1ccc(Cl)cc1 [indomethacin]
solubility of indomethacin in water: 14 ppm
